Laboratory results taken from ChEMBL document CHEMBL3297657, “Synthesis and antitumor activities of novel α-aminophosphonate derivatives containing an alizarin moiety” (Eur J Med Chem, 2014).

How the values were obtained:
NCI-H460 [1] = assay: Induction of apoptosis in human NCI-H460 cells assessed as necrotic cells at 5 uM after 24 hrs by Annexin V/propidium iodide staining-based flow cytometry (reference value: 6.9%); format: functional
NCI-H460 [2] = assay: Induction of apoptosis in human NCI-H460 cells assessed as viable cells at 8 uM after 48 hrs by Annexin V/propidium iodide staining-based flow cytometry (reference value: 72.2%); format: functional; conditions: NCI-H460, 48 h, read-out: Activity
NCI-H460 [3] = assay: Induction of apoptosis in human NCI-H460 cells assessed as viable cells after 24 hrs by Annexin V/propidium iodide staining-based flow cytometry; format: functional, cell-based
NCI-H460 [4] = assay: Induction of apoptosis in human NCI-H460 cells assessed as viable cells at 8 uM by Annexin V/propidium iodide staining-based flow cytometry; format: functional, cell-based; conditions: TDE = time-dependent effect
NCI-H460 [5] = assay: Cell cycle arrest in human NCI-H460 cells assessed as accumulation at G2 phase at 8 uM after 48 hrs by Rnase A/propidium iodide staining-based flow cytometry (reference value: 33.9%); format: functional

| SMILES | Activity (NCI-H460 [1]) | viability at 8 µM (NCI-H460 [2]) | Activity (NCI-H460 [3]) | Activity (NCI-H460 [4]) | Activity (NCI-H460 [5]) |
| --- | --- | --- | --- | --- | --- |
| CCOP(=O)(OCC)C(NC(=O)C(C)Oc1ccc2c(c1O)C(=O)c1ccccc1C2=O)c1cccc2ccccc12 (stereo not given) | 1.4% | 26.6% | Dose-dependent effect | tde | 31.5% |
| CCOP(=O)(OCC)C(NC(=O)C(C)Oc1ccc2c(c1O)C(=O)c1ccccc1C2=O)c1ccccc1OC (stereo not given) | 2.8% | 28.2% | Dose-dependent effect | tde | 22.97% |
| CCOP(=O)(OCC)C(NC(=O)C(C)Oc1ccc2c(c1O)C(=O)c1ccccc1C2=O)c1ccccc1F (stereo not given) | 0.3% | 31.1% | Dose-dependent effect | tde | 23.61% |
